Source: article PMC8151276, “An Integrated Approach toward NanoBRET Tracers for Analysis of GPCR Ligand Engagement” (Molecules, 2021)

Experiments:
Assay type in all cases: binding
CXCR5 = molecular target: T1, CXCR5 (Homo sapiens, UniProt P32302); assay: NanoBRET screen HiBiT-CXCR5 in HEK293; conditions: CXCR5
T1 construct: purchased Promega (in-house HiBiT-GPCR construct library, NanoBRET)
T1 sequence (P32302 1-372): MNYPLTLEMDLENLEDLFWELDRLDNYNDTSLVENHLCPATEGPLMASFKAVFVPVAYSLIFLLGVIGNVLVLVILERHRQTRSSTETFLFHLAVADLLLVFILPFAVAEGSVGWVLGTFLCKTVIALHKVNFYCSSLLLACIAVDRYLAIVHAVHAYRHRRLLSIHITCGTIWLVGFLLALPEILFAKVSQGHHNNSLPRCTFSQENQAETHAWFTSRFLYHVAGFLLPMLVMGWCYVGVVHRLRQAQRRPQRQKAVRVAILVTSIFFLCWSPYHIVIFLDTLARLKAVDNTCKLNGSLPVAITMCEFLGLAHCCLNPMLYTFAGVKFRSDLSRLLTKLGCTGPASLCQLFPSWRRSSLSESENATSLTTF
Procedure: (§1) Each tracer candidate was screened across the entire library of HiBiT-GPCR constructs using NanoBRET as the detection modality. As depicted in Figure 4A, the specificity of interactions was evaluated through decrease in BRET due to competitive displacement of a bound tracer by excess parental compound. Each tracer was analyzed for binding to each HiBiT-GPCR fusion in the absence and in the presence of competing parental compound. Briefly, HEK293 cells were transfected with HiBiT-GPCR constructs diluted into promoterless DNA to reduce expression and maximize translocation to the cell surface. Each tracer candidate was then screened at concentrations of 1 μM and 0.1 μM across cells expressing these fusions. Cells were treated for 1.5 h with tracer either alone or in the presence of 20 μM competing parental compound (i.e., control). BRET was measured upon addition of purified LgBiT and subsequent complementation with HiBiT genetically fused to a GPCR. The specificity of interactions was assessed through a decrease in BRET signal due to competitive displacement of the bound tracer. To further gauge the robustness of these interactions, the fold response over the control (i.e., BRETtracer/BRETcontrol) was calculated. We chose a 1.5-fold response, which translates to ≥7-fold signal over noise as the minimal threshold required to score an interaction as positive. […]. Below we highlight the screening results obtained for our exemplary fluorescent tracers based on Clozapine, Amitriptyline and AZD1283.
(§2) HiBiT-GPCR DNA constructs were diluted in 10 mM Tris pH 8 to a final concentration of 0.01 μg/μL, arrayed in 96-well plates and stored at −20 °C. For transfection, HEK293 cells were suspended in Opti-MEM (without phenol red) supplemented with 2% fetal bovine serum (Seradigm) and 100 units/mL penicillin–streptomycin (Gibco) at a final concentration of 220,000 cells/mL and dispensed into white 96-well plates at 90 μL/well. Subsequent transfections and screens were carried using an Agilent Bravo Automated Liquid Handling Platform. First, the 96-well HiBiT DNA arrays were diluted 25-fold in Opti-MEM (without serum or phenol red) to a final concentration of 0.0004 μg/μL and 20 μL of the diluted DNAs were transferred into new 96-well plates. Next, promoterless carrier DNA (1 μg/μL) was diluted 25-fold (0.04 μg/μL) and then dispensed into the diluted arrays at 20 μL/well. Following brief mixing, Viafect transfection reagent (Promega) diluted 16-fold into Opti-MEM was dispensed into the plates at 40 μL/well. After mixing by pipetting, plates were incubated for 10 min on the pipetting station deck. The DNA-transfection reagent complexes were then added to plates containing cells. To facilitate the screen, 10 μL of DNA-transfection reagent complexes were added in duplicates to the top 4 and bottom 4 rows, resulting in two identical 48-well arrays per plate. Plates with transfected cells were incubated for 18–20 h at 37 °C/5% CO2. A screen of each tracer across the entire library using two different concentrations requires duplicate plates of transfected cells. Depending on the number of tracers being screened, transfections can be scaled up using the same ratios. The next day, for each tracer, four 20× screening solutions in tracer dilution buffer (Promega) were prepared: two duplicates at final concentration of 20 μM and two duplicates at a final concentration of 2 μM. A competing unmodified compound was added to one of each duplicate at a final concentration of 400 μM. The four resulting solutions were diluted 4-fold in Opti-MEM without serum or phenol red to generate 5× solutions (5 µM and 0.5 µM tracer +/− 100 μM competing compound). To screen the library, a BioTek MultiFlo FX liquid dispenser was used to dispense 22.5 µL of tracer solution to the top 4 rows and 22.5 µL tracer + competing compound solution to the 4 bottom rows. Plates were briefly mixed on an orbital shaker and incubated for 1.5 h at room temperature. […]

P2RY4 = molecular target: T2, P2RY4 (Homo sapiens, UniProt P51582); assay: NanoBRET screen HiBiT-P2RY4 in HEK293; conditions: P2RY4
T2 construct: purchased Promega (in-house HiBiT-GPCR construct library, NanoBRET)
T2 sequence (P51582 whole entry): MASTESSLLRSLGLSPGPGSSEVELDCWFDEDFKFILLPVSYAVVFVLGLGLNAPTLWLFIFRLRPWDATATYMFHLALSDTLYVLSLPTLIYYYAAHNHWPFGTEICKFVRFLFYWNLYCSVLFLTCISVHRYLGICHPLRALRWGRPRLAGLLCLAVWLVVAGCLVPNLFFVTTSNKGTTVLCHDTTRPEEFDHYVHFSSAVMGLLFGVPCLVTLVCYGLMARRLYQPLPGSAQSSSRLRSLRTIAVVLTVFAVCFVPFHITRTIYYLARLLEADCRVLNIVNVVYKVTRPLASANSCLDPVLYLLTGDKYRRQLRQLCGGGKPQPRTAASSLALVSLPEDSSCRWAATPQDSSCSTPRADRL
Procedure: as §1, §2

NMUR2 = molecular target: T3, NMUR2 (Homo sapiens, UniProt Q9GZQ4); assay: NanoBRET screen HiBiT-NMUR2 in HEK293; conditions: NMUR2
T3 construct: purchased Promega (in-house HiBiT-GPCR construct library, NanoBRET)
T3 sequence (Q9GZQ4 whole entry): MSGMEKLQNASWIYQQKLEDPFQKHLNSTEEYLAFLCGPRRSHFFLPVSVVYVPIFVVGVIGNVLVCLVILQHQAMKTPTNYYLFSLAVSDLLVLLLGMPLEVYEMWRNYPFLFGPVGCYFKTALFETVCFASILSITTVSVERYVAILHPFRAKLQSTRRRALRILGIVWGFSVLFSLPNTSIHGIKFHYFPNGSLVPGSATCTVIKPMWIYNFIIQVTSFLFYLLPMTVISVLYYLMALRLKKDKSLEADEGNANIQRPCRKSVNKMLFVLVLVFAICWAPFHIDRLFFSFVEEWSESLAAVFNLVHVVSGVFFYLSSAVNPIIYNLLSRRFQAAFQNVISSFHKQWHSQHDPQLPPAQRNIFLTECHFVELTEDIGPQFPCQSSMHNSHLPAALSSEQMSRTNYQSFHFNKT
Procedure: as §1, §2

| Structure (SMILES) | NanoBRET Fold Response (CXCR5; tracer 0.1μM) | NanoBRET Fold Response (CXCR5; tracer 1μM) | NanoBRET Fold Response (P2RY4; tracer 0.1μM) | NanoBRET Fold Response (P2RY4; tracer 1μM) | NanoBRET Fold Response (NMUR2; tracer 0.1μM) | NanoBRET Fold Response (NMUR2; tracer 1μM) |
| --- | --- | --- | --- | --- | --- | --- |
| O=C(CCc1ccc2n1[B-](F)(F)[N+]1=C(c3ccc[nH]3)C=CC1=C2)NCCOCCOCCNC(=O)OCCOCCN1CCN(C2=Nc3ccccc3Sc3ccccc32)CC1 [Quetiapine-a-2-NB590] | 1.01 | 0.92 | 1.05 | 0.84 | 1.02 | 0.82 |
| Cc1nc2n(c(=O)c1CCN1CCC(c3noc4cc(F)ccc34)CC1)CCCC2OC(=O)NCCOCCOCCOCCOCCNC(=O)CCc1ccc2n1[B-](F)(F)[N+]1=C(c3ccc[nH]3)C=CC1=C2 (stereo not drawn) [Risperidone-2-NB590] | 1.10 | 0.93 | 1.08 | 0.90 | 1.09 | 1.05 |
| CC(C)N(CC[C@H](c1ccccc1)c1cc(CCNC(=O)CCOCCOCCOCCOCCNC(=O)CCc2ccc3n2[B-](F)(F)[N+]2=C(c4ccc[nH]4)C=CC2=C3)ccc1O)C(C)C [Tolterodine-2-NB590] | 1.31 | 1.00 | 1.08 | 0.94 | 1.31 | 1.07 |
| CC(C)N(CC[C@H](c1ccccc1)c1cc(CCNC(=O)c2ccc(CNC(=O)CCc3ccc4n3[B-](F)(F)[N+]3=C(c5ccc[nH]5)C=CC3=C4)cc2)ccc1O)C(C)C [Tolterodine-BZ-NB590] | 0.86 | 0.91 | 0.97 | 1.08 | 1.00 | 1.06 |
| CCCn1c(=O)c2[nH]c(-c3ccc(OCC(=O)NCCNC(=O)CCOCCNC(=O)c4ccc(CNC(=O)CCc5ccc6n5[B-](F)(F)[N+]5=C(c7ccc[nH]7)C=CC5=C6)cc4)cc3)nc2n(CCC)c1=O [XAC-3-NB590] | 1.23 | 0.87 | 1.07 | 0.79 | 1.11 | 0.89 |
